Test results from patent publication US20130150317A1, “COMPOUNDS FOR THE TREATMENT OF RENAL CELL CARCINOMA” (Myrovlytis Technology Ventures Limited, priority 2010, published 2013).
Read-outs that look alike come from different tables or passages of the source.

Key:
UOK257-FLCN^− cells [1] = assay: SRB growth inhibition assay in UOK257-FLCN^− cells; type: cell-based, human; conditions: for GI50: Homo sapiens
Excerpt: (§1) Human renal carcinoma of BHD origin cells UOK-257 (UOK-FLCN^−) and FLCN transfected UOK-257 cells UOK-FLCN^+ (Yang et al Cancer Genet Cytogenet. 2008 Jan. 15; 180(2):100-9) were provided by Dr Marston Linehan and Dr. Laura S Schmidt (Urologic Oncology Branch, Centre for Cancer Research, National Cancer Institute, National Institutes of Health, Bethesda, Md. 20892, USA). UOK-257 is the only RCC cell line that has been derived from a patient with BHD and harbours a germline FLCN frameshift mutation (c.1285dupC) (predicted, in the absence of nonsense mediated mRNA decay, to lead to premature protein truncation (p.His429ProfsX27) (Yang et al., Cancer Genet Cytogenet, 2008 Jan. 15; 180(2):100-9). We are not aware of any sporadic RCC cell lines with homozygous FLCN inactivation. FTC-133 cells were purchased from ECACC (Salisbury, United Kingdom). These cells are a non-RCC cell line derived from human thyroid carcinoma. 786-0 cells were available from the author's lab (Clifford et al., Hum Mol Genet. 2001 May 1; 10(10):1029-38). 786-O is a kidney cancer cell line that harbours an inactivating VHL gene mutation (c.311delG p.G104fs*55). All cell lines were cultured in DMEM with supplement of 10% foetal bovine serum except for FTC-133 cells which were incubated in medium with DMEM and Hens (1:1).
(§2) The sensitivity of the cell lines to drug-induced cell growth inhibition was determined using the sulphorhodamine B assay (SRB) as described by Lu et al., Clin Cancer Res. 2001:7:2114-23. Briefly, adherent exponentially growing cells were seeded into 96-well plates at 3-5×10^3 cells/100 μl/well. […] The absorbance per well was measured at 570 nm on a Victor X3 Multilabel Plate Reader (PerkinElmor, Beaconsfield, United Kingdom).
GI50 values, defined as the concentration of compounds required to inhibit growth by 50%, were then calculated. The ratio of GI50 value from UOK257-FLCN^+ and UOK257-FLCN^− were calculated and used as an indicator for the sensitivity to FLCN mutant cells.

UOK257-FLCN^+ cells [2] = assay: SRB growth inhibition assay in UOK257-FLCN^+ cells; type: cell-based, human
Excerpt: as §1
as §2, with “μl/well. After 20-24 h at 37° C., drugs were added at the appropriate drug concentrations to the wells (final DMSO conc. 1%) as indicated in the Results section.” for “μl/well.”
UOK-257 is the only RCC cell line that has been derived from a patient with BHD and harbours a germline FLCN frameshift mutation (c.1285dupC) (predicted, in the absence of nonsense mediated mRNA decay, to lead to premature protein truncation (p.His429ProfsX27) (Yang et al Cancer Genet Cytogenet, 2008 Jan. 15; 180(2):100-9). Both UOK257-FLCN^− and UOK257-FLCN^+ cells were examined for their sensitivities to growth inhibition induced by 15 compounds selected from the COMPARE analysis. Various concentrations of compounds were introduced into the cells 24 hrs after seeding, incubation was continued for 72 hours and growth inhibition was assessed using the suiphorhodamine B (SRB) assay. GI50 values, defined as the concentration of compounds required to inhibit growth by 50%, were then calculated. The ratio of GI50 value from UOK257-FLCN^+ and UOK257-FLCN^− were calculated and used as an indicator for the sensitivity to FLCN mutant cells.

[3] = system: caspase3 in UOK257-FLCN^− cells; assay: Western blot of cellular caspase3 protein after mithramycin; type: cell-based, human; conditions: mithramycin 25, 50, 100, 200 nM, 48 hours
Protocol: Cellular protein expression in UOK Cells with/without FLCN expression in response to drug exposure was determined using total cell extracts at 48 h after treatment, according to standard procedures. Protein concentration was determined using DC protein assay kit according to the manufacturer's instructions (Bio-Rad Laboratories Ltd, Hertfordshire, United Kingdom). Twenty […] of protein from each sample was electrophoresed on 12.5% (w/v) SDS-PAGE gels and electroblotted on to nitrocellulose membrane (Amersham Pharmacia Biotech UK Ltd., Buckinghamshire, United Kingdom). Antibody against FLCN (a gift from Prof. Arnim Pause, Rosalind and Morris Goodman Cancer Centre Montreal, Canada), caspase3 (Cell Signalling Technology, Hertfordshire, United Kingdom), and actin (Sigma-Aldrich Company Ltd., Dorset, United Kingdom) were used. The signal was detected using the enhanced chemiluminescence (ECL+Plus, Amersham) system after addition of anti-mouse IgG-HRP conjugate (DAKO, Ely, United Kingdom).

UOK257-FLCN^+ cells [4] = assay: Clonogenic cell survival assay in UOK257-FLCN^+ cells; type: cell-based, human; conditions: 72 hrs exposure
Excerpt: Colonies with over 30 cells were counted.

[5] = system: 786-O cells expressing wt VHL; assay: SRB growth inhibition in 786-O cells expressing wt VHL; type: cell-based; conditions: Homo sapiens, 786-0; SRB assay, 72 hours
Excerpt: as §1, with “786-O is a kidney cancer cell line that harbours an inactivating VHL gene mutation (c.311delG p.G104fs*55). All cell lines were cultured in DMEM with supplement of 10% foetal bovine serum except for FTC-133 cells which were incubated in medium with DMEM and Hens (1:1).” left out
(§3) The sensitivity of the cell lines to drug-induced cell growth inhibition was determined using the sulphorhodamine B assay (SRB) as described by Lu et al., Clin Cancer Res. 2001:7:2114-23. […] The absorbance per well was measured at 570 nm on a Victor X3 Multilabel Plate Reader (PerkinElmor, Beaconsfield, United Kingdom). […]

[6] = system: FTC-133 cells with FLCN expressed at low levels; assay: SRB growth inhibition in FTC-133 cells, low FLCN expression; type: cell-based; conditions: Homo sapiens, SRB assay
Excerpt: as §1, with “786-O is a kidney cancer cell line that harbours an inactivating VHL gene mutation (c.311delG p.G104fs*55). All cell lines were cultured in DMEM with supplement of 10% foetal bovine serum except for FTC-133 cells which were incubated in medium with DMEM and Hens (1:1).” left out
as §3

[7] = system: FTC-133 cells with FLCN expressed at high levels; assay: SRB growth inhibition in FTC-133 cells, high FLCN expression; type: cell-based; conditions: Homo sapiens, SRB assay
Excerpt: as §1, with “786-O is a kidney cancer cell line that harbours an inactivating VHL gene mutation (c.311delG p.G104fs*55). All cell lines were cultured in DMEM with supplement of 10% foetal bovine serum except for FTC-133 cells which were incubated in medium with DMEM and Hens (1:1).” left out
as §3

UOK257-FLCN^− cells [8] = conditions: 4×GI50 mithramycin alone
Protocol: At the end of the time course, media was carefully removed and cells were fixed in 85% ice-cold ethanol. After removal of ethanol, cells were incubated in the dark at 37° C. for 20 minutes in PBS buffers containing 0.1% Triton X-100, 100 mg/mL RNase A and 10 mg/mL Propidium iodide (PI). The 96-well plates were subsequently scanned using the Acumen eX3 cytometer (TTP LabTech).

UOK257-FLCN^− cells [9] = assay: Clonogenic cell survival assay in UOK257-FLCN^− cells
Protocol: The final concentration of DMSO in the medium was 1%. Four dishes with two seeding densities for each drug concentration were used and at least three experiments were carried out under each set of conditions. […] The cells were incubated for an additional 10-16 days until visible colonies appeared, which were fixed with Carnoy's fixative (methanol:acetic acid 3:1, v:v), and visualized by staining cells in sulphorhodamine B (0.4%). Colonies with over 30 cells were counted. […] Cell survival following drug exposure was expressed as % control cloning efficiency or survival.

## CO[C@H](C(=O)[C@@H](O)[C@@H](C)O)C1Cc2cc3cc(OC4CC(OC5CC(O)C(O)C(C)O5)C(O)C(C)O4)c(C)c(O)c3c(O)c2C(=O)[C@H]1OC1CC(OC2CC(OC3CC(C)(O)C(O)C(C)O3)C(O)C(C)O2)C(O)C(C)O1 (some centres unmarked) [mithramycin, Mithramycin]
UOK257-FLCN^− cells [1]; 72 h, read-out: GI50 nM in UOK-FLCN^−
  GI50: 64.2 ± 7.9 nM
UOK257-FLCN^− cells [1]; 72 h, read-out: GI50 in UOK257-FLCN^− cells, rapamycin combination experiment
  GI50: 69 ± 10 nM
UOK257-FLCN^− cells [1]; read-out: GI50 in FLCN-null UOK257 cells
  GI50: 64.2 ± 7.9 nM
UOK257-FLCN^− cells [1]; ratio>1 = more inhibitory to FLCN^− cells
  GI50 Ratio of UOK-FLCN^+/UOK-FLCN^−: 9.88
UOK257-FLCN^+ cells [2]; 72 hours continuous exposure, mean ± SE (n), read-out: GI50 nM in UOK-FLCN^+
  GI50: 634 ± 148 nM
UOK257-FLCN^+ cells [2]; Homo sapiens, 72 h, 72 hours continuous exposure, mean ± SE (n), read-out: GI50 nM in UOK-FLCN^+
  GI50: 634 ± 148 nM
UOK257-FLCN^+ cells [2]; Homo sapiens, read-out: GI50 in FLCN-wt UOK257 cells
  GI50: 634 ± 148 nM
[3]
  active forms of cleaved caspase3 (Western blot): found at 100 and 200 nM, but not in low concentrations of mithramycin (25 and 50 nM)
UOK257-FLCN^+ cells [4]; 200 nM
  cell survival (clonogenic), UOK257-FLCN^+ cells: more than 85%
UOK257-FLCN^+ cells [4]; 500 nM
  cells able to form colonies, UOK257-FLCN^+ cells: more than 60%
UOK257-FLCN^+ cells [4]; 5000 nM
  cells survived (clonogenic), UOK257-FLCN^+ cells: more than 4%
[5]
  GI50: 299 ± 17 nM
[6]
  GI50: 38.7 ± 10.4 nM
[6]; 72 hours
  GI50: 38.7 ± 10.4 nM
[7]
  GI50: 35.3 ± 7.3 nM
[7]; 72 hours
  GI50: 35.3 ± 7.3 nM
UOK257-FLCN^− cells [8]
  lengthening of the S and G2-M time: 100%
UOK257-FLCN^− cells [9]; 200 nM where stated
  fold more cytotoxic to FLCN-null than FLCN-wild type UOK257 cells (clonogenic survival): ~10 fold
UOK257-FLCN^− cells [9]; 200 nM, 72 hrs exposure
  viable cells (clonogenic survival), UOK-257 cells without FLCN expression: less than 8%
UOK257-FLCN^− cells [9]; 500 nM, 72 hrs exposure
  cells survived (clonogenic), UOK257-FLCN^− cells: less than 0.1%
